We go through 90 compounds from a melting point compilation (Tetko et al.; mined from patent text by program, amines drawn as free bases though some values may be those of a salt).

A word on the melting point: it is the temperature, or range, at which the solid turns liquid.

`Cn1nnnc1NCC(O)CCOc1cccc(CN2CCCCC2)c1` (stereo not given) had a melting point of 138 to 139 °C.
Under `CN1CCc2c(cccc2NC(=O)c2ccccc2Br)C1` stands 206 to 208 °C; under `O=C(NCC1(c2ccccc2)CCCCC1)Nc1ccc(I)cc1`, 184 to 190 °C.
For `Cc1oc(-c2ccccc2)nc1CSc1ccc(S(=O)(=O)Nc2ccccc2C(=O)O)cc1`, the melting point is 182 to 184 °C.
Compound `COc1ccc(C2=NNC(=O)[C@H]3CC=CC[C@@H]23)cc1OC` (relative stereo) showed a melting point of 173 to 174 °C.
The same measure for `Cn1c(C(F)(F)F)cc(=O)n(-c2ccc3snc(OCC#N)c3c2)c1=O`: 265 to 266 °C; for `Cc1c(O)ccc2c1C(C)(C)CC2`: 92 to 93 °C; for `c1ccc2c(NCCN3CCOCC3)noc2c1`: 79 to 80 °C.
The same measure for `CCCCN1CC(c2ccccc2)=C(O)C1=O`: 137 to 139 °C.
Compound `CC(C)(C)c1ccc(/C=C/C(=O)Nc2ccc3c(c2)NCCC3)cc1` showed a melting point of 225 to 227 °C.
`Cn1ccnc1SCC(O)(Cn1cncn1)c1ccc(Cl)cc1Cl` (stereo not given) gave a melting point of 159 to 161 °C.
Consider `CCC(OCC(F)(F)F)c1ccc(Cl)c2nc3n(c12)CCCN3c1ccc(OC)nc1C` (stereo not given), for which the melting point lay within 124 to 126 °C.
In turn, `CCOC(=O)c1ccc(-c2ccc(O)cc2)cc1` yielded a melting point of 144 to 146 °C.
The same measure for `O=C1C(=CO)COc2ccc(OCc3ccccc3)cc21`: 82 to 85 °C; for `CCCC(C)(C)C[C@@H](CC(=O)OC(C)(C)C)C(=O)N1C(=O)O[C@H](c2ccccc2)[C@@H]1C`: 83 to 85 °C; for `O=C(Nc1ccc2ccc(-c3ccc(Cl)cc3)nc2n1)c1ccccc1`: 156 to 158 °C.
Regarding `CCCCCS(=O)(=O)NC(=O)/C=C/c1ccc(OCCOC)cc1Oc1ncc([N+](=O)[O-])cc1C`, the melting point lay in the range of 148 to 150 °C.
Under `CCCC(=O)C(=O)NCC(OCC)(OCC)c1ccncc1` stands 95 to 96 °C; under `C[C@H]1CCCN(C(=O)Cc2ccc(Cl)c(Cl)c2)[C@H]1C=O` (relative stereo), 97 to 98 °C; under `N#CC1CN1C(=O)NC(=O)C1CCCCC1` (stereo not given), 142 to 144 °C.
On to `CC(C)CN(C)c1cc2c(cc1C#N)NC(=O)CC(c1cccc(-n3nncc3CN3CCCC3)c1)=N2`, for which the melting point turned out to be 174 °C.
The same measure for `Cn1c(=O)c(-c2ccc(Cl)cc2Cl)cc2c3cc(C=NO)ccc3n(C)c21`: 287 to 290 °C; for `O=c1ccc2cc(OC3CCC4(CCNCC4)CC3)ccc2o1`: 193 to 194 °C; for `NC(=S)NCCCCCC(=O)Nc1ccc(C(F)(F)F)cc1`: 140 to 142 °C.
`COC(=O)Cc1cc(C)c(C(=O)c2ccc(Cl)cc2)n1C` yielded a melting point of 122 to 125 °C.
The same measure for `c1ccc2cc(N3CCNCC3)ncc2c1`: 95 to 96 °C.
For the compound `CCCCOCCOc1ccc(-c2ccc3c(c2)C=C(C(=O)Nc2ccc([C@H](O)c4ccccn4)cc2)CCN3C(=O)C(F)(F)F)cc1`, the melting point was 100 to 102 °C.
The same measure for `CCOc1nc(=O)n(-c2cc(C(=O)OC)c(Cl)cc2F)c(=O)n1C`: 45 to 47 °C; for `NC(=O)c1csc(C2OC(CO)C(O)C2O)n1` (stereo not given): 142 to 144 °C.
The compound `O=C(COc1ccc(CN2CCOCC2)cc1)N1CCN(c2ccc(N3C[C@H](CNC(=S)C4CC4)OC3=O)cc2F)CC1` yielded a melting point of 138 to 141 °C.
The same measure for `O=S(=O)(Cc1ccccc1)c1ncc(Br)cn1`: 142 to 143 °C.
Under `CN(C)C(N)=Nc1cc(S(C)=O)ccc1N1CCOCC1` (stereo not given) stands 160 to 161 °C; under `COc1ccc(Cn2cc3nc(Cl)nc(Cl)c3n2)cc1`, 108 to 109 °C.
Under `CSc1cc(C)nc(SC)c1NC(=O)CCCCSc1nc2cccc(C(F)(F)F)c2o1` stands 179 to 180 °C; under `CCOC(=O)C=CC=Cc1ccc(OC)c(C)c1C`, 92 to 95 °C.
Compound `CC(=O)NC[C@H]1CN(c2ccc(C(=O)c3cnc4ccc(C#N)cn34)cc2)C(=O)O1` gave a melting point of 224 to 226 °C.
Take `COc1ccccc1-c1nc2nc(SC)nnc2c(=O)[nH]1`: the melting point worked out at 268 °C.
For the compound `CCCCc1c(NCCCO)cnn(C(C)(C)C)c1=O`, the melting point is 106 to 108 °C.
Under `N#Cc1ccc(-c2cn(-c3ccc(C#N)cc3)c(SCc3ccccc3)n2)cc1` stands 168 to 172 °C.
Compound `COc1ccc(CCNC(=O)CCCCC(=O)NCCc2cccc3ccccc23)cc1OC` came in with a melting point of 156 to 157 °C.
Under `CCOC(=O)c1ccc(NCCC[Si](C)(C)C)cc1` stands 64 to 66 °C; under `c1csc(CNc2nccc3ccccc23)c1`, 86.5 to 87.5 °C; under `N#CC=CNCC(=O)c1cccc(Cl)c1Cl`, 125 to 127 °C.
Under `COC(=O)CCc1cc2c(s1)NC(=O)C(C)N=C2c1ccccc1Cl` (stereo not given) stands 196 to 197 °C; under `c1cnc2ccc(Cn3nnc4ccc(-c5cnn(C6CCOCC6)c5)nc43)cc2c1`, 182 to 184 °C.
Under `Nc1cc(SC2=CCCCC2)ccc1[N+](=O)[O-]` stands 100 to 102 °C; under `CC(CO)(CCCCN1C(=O)c2ccccc2C1=O)c1ccccc1` (stereo not given), 149 to 150 °C.
`NC(=O)CN1CCN(C(=O)Cc2ccc(OC(=O)c3ccc([N+](=O)[O-])cc3)cc2)CC1` registered a melting point of 192 to 196 °C.
In the case of `COc1ccc(N2CCN(c3c(C)c(C)c4c(c3C)CC(C)(CN3CCC(=O)CC3)O4)CC2)cc1` (stereo not given), the melting point was 123 to 127 °C.
The same measure for `O=C1O[C@@H](CNC(=S)C(F)F)CN1c1ccc(N2CCCS(=O)(=O)CC2)c(F)c1`: 128 to 130 °C; for `N#Cc1cn(CC(O)CCl)nc1[N+](=O)[O-]` (stereo not given): 78 to 80 °C.
`N#CCCNC(=O)C1=CC(CF)(CF)Oc2ccc(Br)cc21` yielded a melting point of 140 to 142 °C.
Compound `CCc1[nH]n(C2CCCC2)c2nc(Cc3ccccn3)nc(=O)c1-2` had a melting point of 120 to 122 °C.
With `CC=Cc1nc2c(C(F)(F)F)cccc2c(O)c1C(=O)Nc1nccs1`, the melting point worked out at 265 °C.
As to `COc1ccc(CN(CCCC(N)=O)Cc2ccc(OC)cc2)cc1`, the melting point lay in the range of 53 to 54 °C.
Compound `Cc1noc(NS(=O)(=O)c2ccc(C(C)C)cc2)c1Br` showed a melting point of 130 to 133 °C.
As to `CC(C)N1CCN(CCN2CCC(c3noc4cc(F)ccc34)CC2)C1=O`, the melting point lay in the range of 121 to 123 °C.
As for `COc1cc2c(c(Cl)c1Cl)C(=O)C(c1ccccc1)C2` (stereo not given), the melting point lay in the range of 187 to 192 °C.
The same measure for `Cc1csc(CN(C)C(=O)C23CC4CC(CC(C4)C2)C3)c1`: 87 to 88 °C.
The same measure for `CC(C)Oc1ccc(-n2c(C(=O)NCCNC(=O)OC(C)(C)C)c(Cl)c3cc(Oc4ccc(C(F)(F)F)cn4)ccc32)cc1`: 184 to 185 °C; for `Cc1ccccc1C1CCN(CCc2c[nH]c3ccccc23)CC1`: 111 to 112 °C; for `CCOC(=O)C[C@H]1O[C@H](c2ccc(O)cc2OC)c2cc(Cl)ccc2N(CC(C)(C)C)C1=O` (relative stereo): 197 to 199 °C.
Under `CCC(=O)C1c2cccc(O)c2C(=O)c2c(OC(C)=O)cccc21` (stereo not given) stands 106 °C.
For the compound `O=S1(=O)NC(c2cccc(F)c2)c2ccccc21` (single isomer, unassigned; (+)), the melting point stood at 148 °C.
The same measure for `O=C(O)CN1CC(c2ccc(Cl)cc2)CC1=O` (stereo not given): 142 to 143 °C; for `CC(=O)OCC(=O)Nc1ccc(-c2nc(C(=O)Nc3nccs3)c(-c3ccc(C)cc3)[nH]2)cc1`: over 250 °C.
On to `CC(C)Nc1cccnc1N1CCN(C(=O)c2ccc(C(=O)N(CCO)Cc3ccccc3)cc2)CC1`, for which the melting point fell in the range of 99 to 101 °C.
The same measure for `N#Cc1cnc2cc(/C=C/CCCN3CCOCC3)ccc2c1Nc1ccc(Cl)cc1Cl`: 142 to 144 °C.
Under `CS(=O)(=O)N1CCN(c2ccc3c(c2)N2CCN=C2C(c2ccccc2)=[N+]3[O-])CC1` stands 252 to 253 °C; under `COC(=O)c1cc([N+](=O)[O-])c(C(C)(C)C)c([N+](=O)[O-])c1`, 115 to 117 °C.
`COc1ccc2c(c1)N(C(C)=O)CCO2` came in with a melting point of 76 to 77 °C.
Under `Cc1ccccc1C=CC(=O)C=Cc1ccccc1C` stands 94 to 96 °C.
As to `COc1c(C)c(C=O)c(OC)c2ccccc12`, the melting point is 95 to 96 °C.
The same measure for `Nc1cc(C(F)(F)F)cc(N)c1Cl`: 96 °C.
`CC(=O)NC(C)Cc1ccc(CCC(=O)O)cc1` (stereo not given): the melting point lay in the range of 93 to 96 °C.
`CCc1cn(C2CC(O)C(CNC(=O)Cc3cccs3)O2)c(=O)[nH]c1=O` (stereo not given) registered a melting point of 215 to 217 °C.
Consider `c1ccc(-c2ccc3[nH]nc(Nc4nccs4)c3c2)nc1`, for which the melting point was 234 to 236 °C.
The same measure for `O=C(CNc1ccc2[nH]c(=O)[nH]c2c1)N1CCC(Oc2ccc(Cl)cc2)CC1`: 201 to 205 °C.
The compound `C=CC(=O)OC(C)OC(=O)c1c2ccccc2cc2ccccc12` (stereo not given) yielded a melting point of 66 to 68 °C.
`O=C1CCCN(C(=O)c2ccc([N+](=O)[O-])cc2Cl)c2ccccc21` returned a melting point of 140 to 143 °C.
Compound `CC(=O)Nc1ccc(S(=O)(=O)NC23CC4CC(CC(C4)C2)C3)cc1` came in with a melting point of 290 °C.
The compound `Cc1cccc2c(=O)nc(-c3cccc(C(=O)O)n3)sc12` yielded a melting point of 260 to 261 °C.
`CC1CCC(C(C)C)C(OC(=O)C2(CC(=O)OC(C)(C)C)C(=O)N(Cc3ccc(Br)cc3F)C(=O)c3cccn32)C1` (stereo not given) returned a melting point of 99 to 100 °C.
Consider `O=C(O)C(Cl)=Cc1cc(-n2c(=O)cc(C(F)(F)F)[nH]c2=O)ccc1Cl`, for which the melting point was over 250 °C.
The compound `CC(=O)NC1(C)CCN(CCCOc2ccc(F)cc2)CC1` registered a melting point of 103 °C.
Compound `C#CCNC(=O)c1ncn2c1CN(C)C(=O)c1ccccc1-2` showed a melting point of 213 to 215 °C.
`COc1ccc(/C(=C\C=C\C(=O)O)c2ccccc2OC)cc1`: the melting point was in the range of 159 to 161 °C.
The same measure for `CCOC(=O)c1c(C)nc2snnc2c1NC(C)C`: 62 to 65 °C; for `CCCCC(CC)Cn1c2cc(CO)ccc2c2ccc(CO)cc21` (stereo not given): 119 to 120 °C.
Compound `COC(=O)C(CS)NC(=O)CNC(=O)CS` (stereo not given) showed a melting point of 67 to 69 °C.
